Values quoted from earlier work, collected in patent US20260335331A1, “ORAL FORMULATION OF DIAMINOPHENOTHIAZINES AND METHODS OF MAKING AND USING THE SAME IN THE TREATMENT AND/OR PREVENTION OF DISEASES” (priority 2022, published 2026).

Test system: Macrorhabdus ornithogaster
Conditions: background statement

For `C[C@@H]1[C@H](O)[C@@H](C)/C=C/C=C/C=C/C=C/C=C/C=C/C=C/[C@H](O[C@@H]2O[C@H](C)[C@@H](O)[C@H](N)[C@@H]2O)C[C@@H]2O[C@](O)(C[C@@H](O)C[C@@H](O)[C@H](O)CC[C@@H](O)C[C@@H](O)CC(=O)O[C@H]1C)C[C@H](O)[C@H]2C(=O)O` [amphotericin B], the “success in treatment of avian megalobacteriosis” value is listed as “Some success has been observed”.
